Marks after values point to notes of the source that are not given here.
What was measured:
[1] = tested on: peritoneal macrophages stimulated with LPS/IFN-γ; assay: IL-12 and TNF production by stimulated peritoneal macrophages exposed to inosine; assay type: cell-based
Procedure: To determine the effect of inosine on inflammatory cytokine production, stimulated macrophages were exposed to inosine at 0 to 1000 μM, after which production of cytokines IL-12 and TNF was measured.

[2] = tested on: male BALB/c mice; assay: Plasma cytokine levels after LPS challenge in endotoxemic mice; assay type: in vivo; conditions: 100 mg/kg i.p. 30 min before LPS 70 mg/kg i.p.
Procedure: To determine whether inosine inhibits inflammatory cytokine release in vivo, male BALB/c mice were injected with inosine (100 mg/kg; i.p.) followed 30 minutes later by an i.p. injection of LPS (70 mg/kg). Plasma levels of the different cytokines were measured at various times (90 mm 2 h, 4 h, and 8 h) after the LPS challenge.
The results are shown in FIGS. 1A-E. Data are mean ±SEM of n=8 mice. The asterisk in the figure indicates p<0.05. […] Inosine was also shown to augment IL-10 (FIG. 1E) production in endotoxemic mice. […] Inosine inhibits the production of proinflammatory cytokines, but also potentiates the formation of the anti-inflammatory IL-10. Accordingly, inosine is useful for treating or preventing an inflammation disease or a reperfusion disease.

[3] = tested on: BALB/c mice; assay: LPS-induced lethality (survival) in mice; assay type: in vivo; conditions: 100 mg/kg 30 min before 70 mg/kg i.p. LPS; 24-96 h; p<0.05 vs vehicle
Procedure: Because inosine skewed the cytokine response towards an anti-inflammatory profile, the ability of inosine to decrease LPS-induced lethality in a murine model system was investigated. BALB/c mice were pretreated with drug vehicle (physiologic saline) or 100 mg/kg inosine 30 min before the injection of 70 mg/kg of i.p. LPS. Survival was recorded at 24, 48, 72, and 96 h after the LPS injection. Results from the summary of two different experiments are shown. N=16 animals in each group. Inosine improved survival rate at 24-96 h (p<0.05). Therefore, inosine conferred significant protection in this endotoxemic model. Thus, inosine is useful for treating or preventing an inflammation disease or a reperfusion disease.

[4] = tested on: STZ diabetic mice; assay: Streptozotocin-induced diabetes: blood glucose, diabetes incidence, pancreatic insulin content; assay type: in vivo
Procedure: The effect of inosine was in a […] model of streptozotocin-induced diabetes was examined. Mice were treated with streptozotocin (40 mg/kg in citrate buffer) or vehicle (citrate buffer) i.p. for 5 consecutive days to induce diabetes. Blood glucose was monitored over the following 21 days using a one-touch blood glucose meter (Lifescan). […] Hyperglycemia was defined as non-fasting blood glucose level higher than 200 mg/dL. Mice were treated simultaneously with streptozotocin injection throughout the 21 days of the experiments and with vehicle or inosine (100 mg/kg oral gavage, twice a day). Samples of pancreas were removed on day 21 and weighed before being placed into 6 mls of acid ethanol (23:7:0.45 ethanol:dH2O:HCl) and homogenized. The pancreas samples were incubated for 72 h at 4° C. before being centrifuged. The insulin content of the supernatant was then determined using an ELISA assay.
An “*” indicates significant reduction of circulating glucose or diabetes incidence in the inosine-treated streptozotocin rats when compared to vehicle-treated streptozotocin rats (p<0.05).
An “*” in TABLE 7 indicates significant decreases in insulin content in response to streptozotocin when compared to control, and a “#” indicates significant preservation of pancreatic insulin content in the inosine-treated streptozotocin rats (p<0.05). Pancreatic insulin content at 21 days in streptozotocin diabetic mice receiving vehicle or inosine treatment.

[5] = tested on: DSS mice; assay: DSS-induced inflammatory bowel disease model, inosine treatment; assay type: in vivo; conditions: 5% DSS 10 days, inosine 200 mg/kg/day orally
Procedure: The effect of inosine in a mouse model of inflammatory disease was examined. Inosine was administered (oral administration, 100 mg/kg, 2 times a day), in a mouse model of inflammatory bowel disease induced by dextran sulfate solution (DSS). This system is well-characterized and is considered a reliable model of inflammatory bowel disease. Efficacy of a pharmaceutical compound in this model is taken as evidence that the compound is likely to be effective in human beings (Sasaki et al., Scand. J. Immunol. 51:23-8,2000; Gaudio et al, Dig. Dis. Sci. 44:1458-75, 1999; Murthy et al., Aliment Pharmacol. Ther. 13:251-60, 1999; Kimura et al., Arzneimittelforschung 48:1091-96, 1998; Dieleman et al., Scand. J Gastroenterol. Suppl. 223:99-104, 1997).
Symptoms associated with the DSS model were induced as follows. Mice were patiented to a drinking water containing 5% DSS for 10 days, in the presence (n=10) or absence (n=10) of inosine treatment (200 mg/kg/day, orally). At the end of 10 days, animals were evaluated for the incidence of bloody diarrhea, for colon shortening, and colon histopathology. Colonic myeloperoxidase (MPO) and malondialdehyde (MDA) levels were measured. These parameters provide a good cross-section of the functional and inflammatory changes associated with the current model of inflammatory bowel disease.
Significant protective effect of inosine in the presence of DSS is indicated as *p<0.05, when compared to the values with DSS alone in the absence of inosine.

[6] = tested on: DSS mice; assay: DSS colitis, inosine versus 5′-IMS at 50, 100 and 300 μmoles/kg/day; assay type: in vivo
From the text: The effect of various doses (50, 100 and 300 μmoles/kg/day) inosine and IMS on the outcome of DSS (dextran sodium sulfate) colitis in mice. Colonic length, gross histologic score, colonic MDA content and colonic MPO content have been determined. N=10 animals per experimental groups. *p<0.05 and **p<0.01 indicates significant improvements in drug treated DSS animals, when compared to vehicle treated DSS animals. Mean +SEM are presented, except for histological scores, which are presented as medians.
Significant improvements in 5′-IMS treated DSS animals was observed as compared to vehicle treated DSS animals. Mean ±SEM are shown, except for the histological scores, which are presented as medians.

[7] = day 0, inosine 100 mg/kg oral gavage twice a day
[8] = 50, 100 and 300 μmoles/kg/day, vs vehicle treated DSS animals

## OC[C@H]1O[C@@H](n2cnc3c(O)ncnc32)[C@H](O)[C@@H]1O [Inosine, inosine]
[1]; Inosine 10 μM, control 6.84 ± 0.39
  IL-12: 5.9 ± 0.19 ng/mL
[1]; Inosine 10 μM, control […] ± 1.89
  TNF: 10.08 ± 1.3 ng/mL
[1]; Inosine 30 μM
  IL-12: 5.1 ± 0.14 ng/mL
  TNF: 8.38 ± 0.14 ng/mL
[1]; Inosine 100 μM
  IL-12: 4.46 ± 0.62 ng/mL
  TNF: 7.61 ± 0.33 ng/mL
[1]; Inosine 300 μM
  IL-12: 4.94 ± 0.06 ng/mL
  TNF: 5.45 ± 0.52 ng/mL
[1]; Inosine 1000 μM
  IL-12: 4.34 ± 0.39 ng/mL
  TNF: 5.62 ± 0.88 ng/mL
[2]; FIG. 1A
  production of TNF-α (plasma): suppress
[2]; FIG. 1B
  production of IL-12 (plasma): suppress
[2]; FIG. 1C
  production of IFN-γ (plasma): suppress
[2]; FIG. 1D
  production of MIP-1α (plasma): suppress
[2]; FIG. 1E
  IL-10 production (plasma): augment
[3]
  survival rate: improved
[4]; 21 days, inosine treated, STZ vehicle 6 ± 1, control 68 ± 11
  Pancreatic insulin content: 21 ± 4# ng insulin/mg protein
[4]; [7]
  Diabetes Incidence: 0%
  Mean Blood Glucose: 95 ± 4 mg/dL
  Median Blood Glucose: 96 mg/dL
[4]; day 7, inosine 100 mg/kg oral gavage twice a day, STZ vehicle 8
  Diabetes Incidence: 0%
[4]; day 7, inosine 100 mg/kg oral gavage twice a day, STZ vehicle 137 ± 7
  Mean Blood Glucose: 112 ± 6* mg/dl
[4]; day 7, inosine 100 mg/kg oral gavage twice a day, STZ vehicle 146
  Median Blood Glucose: 117* mg/dl
[4]; day 21, inosine 100 mg/kg oral gavage twice a day, STZ vehicle 67
  Diabetes Incidence: 25* %
[4]; day 21, inosine 100 mg/kg oral gavage twice a day, STZ vehicle 231 ± 15
  Mean Blood Glucose: 152 ± 20* mg/dl
[4]; day 21, inosine 100 mg/kg oral gavage twice a day, STZ vehicle 260
  Median Blood Glucose: 130* mg/dl
[5]; DSS alone 3.6 ± 0.4
  Gut histological damage (1-4 scale): 1.2 ± 0.4*
[5]; DSS alone 3.7 ± 0.8
  Gut malondialdehyde levels: 2.1 ± 0.5* nmol/mg protein
[5]; DSS alone 4.2 ± 0.1, in cm (unit assumed)
  Colonic length: 5.1 ± 0.1*
[5]; DSS alone 20 ± 2
  Weight loss of the animals at 10 days: 13 ± 1* %
[5]; DSS alone 90
  Incidence of rectal bleeding: 20* %
[5]; DSS alone 296 ± 87
  Gut myeloperoxidase levels: 88 ± 14* nU/mg protein
[6]; [8]
  protection against colonic shortening: not
  protection against visible histological damage: not
[6]; first statement ('For example')
  dose at which colonic MDA levels were reduced: 100 µmol/kg/day
[6]; second statement of b313
  dose at which MDA levels were reduced (second statement, 'Similarly'): 300 µmol/kg/day

— US6958324B2, “Inosine compounds and their use for treating or preventing an inflamation or a reperfusion disease” (Inotek Pharmaceuticals Corporation, priority 1998, dated 2005)
